PubChem BioAssay (NCI)
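Each compound was tested at five concentrations against cells in 96-well plates for 48 hours. GI50 = concentration required for 50% inhibition of growth. TGI: concentration producing complete growth inhibition.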

Assays:
Assay in all cases: NCI anticancer screen, dose series, 48 h
786-0 renal = test system: 786-0 renal
A498 renal = test system: A498 renal
A549 NSCLC = test system: A549 NSCLC
ACHN renal = test system: ACHN renal
BT-549 breast = test system: BT-549 breast
CAKI-1 renal = test system: CAKI-1 renal
COLO 205 colon = test system: COLO 205 colon
DU-145 prostate = test system: DU-145 prostate
EKVX NSCLC = test system: EKVX NSCLC
HCC-2998 colon = test system: HCC-2998 colon
HCT-116 colon = test system: HCT-116 colon
HCT-15 colon = test system: HCT-15 colon
HL-60(TB) leukemia = test system: HL-60(TB) leukemia
HOP-92 NSCLC = test system: HOP-92 NSCLC
HS 578T breast = test system: HS 578T breast
HT29 colon = test system: HT29 colon
IGROV1 ovarian = test system: IGROV1 ovarian
K-562 leukemia = test system: K-562 leukemia
KM12 colon = test system: KM12 colon
M14 melanoma = test system: M14 melanoma
MCF7 breast = test system: MCF7 breast
MDA-MB-231 breast = test system: MDA-MB-231 breast
MDA-MB-435 = test system: MDA-MB-435
NCI-H23 lung = test system: NCI-H23 lung
NCI-H460 lung = test system: NCI-H460 lung
NCI-H522 lung = test system: NCI-H522 lung
NCI/ADR-RES ovarian = test system: NCI/ADR-RES ovarian
OVCAR-3 ovarian = test system: OVCAR-3 ovarian
OVCAR-4 ovarian = test system: OVCAR-4 ovarian
OVCAR-5 ovarian = test system: OVCAR-5 ovarian
PC-3 prostate = test system: PC-3 prostate
RPMI-8226 leukemia = test system: RPMI-8226 leukemia
RXF 393 renal = test system: RXF 393 renal
SF-295 CNS = test system: SF-295 CNS
SF-539 CNS = test system: SF-539 CNS
SK-MEL-2 melanoma = test system: SK-MEL-2 melanoma
SK-MEL-28 melanoma = test system: SK-MEL-28 melanoma
SK-MEL-5 melanoma = test system: SK-MEL-5 melanoma
SK-OV-3 ovarian = test system: SK-OV-3 ovarian
SN12C renal = test system: SN12C renal
SNB-19 CNS = test system: SNB-19 CNS
SNB-75 CNS = test system: SNB-75 CNS
T-47D breast = test system: T-47D breast
TK-10 renal = test system: TK-10 renal
U251 CNS = test system: U251 CNS
UACC-257 melanoma = test system: UACC-257 melanoma
UACC-62 melanoma = test system: UACC-62 melanoma
UO-31 renal = test system: UO-31 renal
CCRF-CEM leukemia = test system: CCRF-CEM leukemia
HOP-62 NSCLC = test system: HOP-62 NSCLC
LOX IMVI melanoma = test system: LOX IMVI melanoma
MALME-3M melanoma = test system: MALME-3M melanoma
NCI-H226 lung = test system: NCI-H226 lung
OVCAR-8 ovarian = test system: OVCAR-8 ovarian
SF-268 CNS = test system: SF-268 CNS
SW-620 colon = test system: SW-620 colon

With `NC(N)=N/N=C/c1c(-c2ccc([N+](=O)[O-])cc2)nc2sccn12` the TGI (786-0 renal) was 3.07 µM, the TGI (A498 renal) was 3.21 µM and the TGI (A549 NSCLC) was 3.34 µM. It also gave a TGI (ACHN renal) of 7.27 µM, a TGI (BT-549 breast) of 3.44 µM and a TGI (CAKI-1 renal) of 6.93 µM. It also gave a TGI (COLO 205 colon) of 1.96 µM, a TGI (DU-145 prostate) of 3.21 µM and a TGI (EKVX NSCLC) of 3.44 µM. The TGI (HCC-2998 colon) was 2.73 µM, the TGI (HCT-116 colon) was 3.05 µM and the TGI (HCT-15 colon) was 23.7 µM. It also gave a TGI (HL-60(TB) leukemia) of 5.8 µM, a TGI (HOP-92 NSCLC) of 3.52 µM and a TGI (HS 578T breast) of 4.14 µM. It also gave a TGI (HT29 colon) of 2.95 µM, a TGI (IGROV1 ovarian) of 36.4 µM and a TGI (K-562 leukemia) of 2.84 µM. The TGI (KM12 colon) was 1.88 µM, the TGI (M14 melanoma) was 3.38 µM and the TGI (MCF7 breast) was 2.62 µM. The TGI (MDA-MB-231 breast) was 3.13 µM, the TGI (MDA-MB-435) was 2.87 µM and the TGI (NCI-H23 lung) was 3.46 µM. For the same compound, the TGI (NCI-H460 lung) was 4.03 µM, the TGI (NCI-H522 lung) was 3.83 µM and the TGI (NCI/ADR-RES ovarian) was over 100 µM. For the same compound, the TGI (OVCAR-3 ovarian) was 2.89 µM, the TGI (OVCAR-4 ovarian) was 2.97 µM and the TGI (OVCAR-5 ovarian) was 3.11 µM. The TGI (PC-3 prostate) was 2.93 µM, the TGI (RPMI-8226 leukemia) was 28.3 µM and the TGI (RXF 393 renal) was 7.55 µM. The TGI (SF-295 CNS) was 2.87 µM, the TGI (SF-539 CNS) was 3.34 µM and the TGI (SK-MEL-2 melanoma) was 3.33 µM. For the same compound, the TGI (SK-MEL-28 melanoma) was 3.74 µM, the TGI (SK-MEL-5 melanoma) was 7.98 µM and the TGI (SK-OV-3 ovarian) was 3.35 µM. It also gave a TGI (SN12C renal) of 3.2 µM, a TGI (SNB-19 CNS) of 2.74 µM and a TGI (SNB-75 CNS) of 3.27 µM. The TGI (T-47D breast) was 3.58 µM, the TGI (TK-10 renal) was 3.22 µM and the TGI (U251 CNS) was 2.95 µM. For the same compound, the TGI (UACC-257 melanoma) was 3.65 µM, the TGI (UACC-62 melanoma) was 3.22 µM and the TGI (UO-31 renal) was 6.13 µM.
Work on `COc1ccc2c(c1)CCC1C2CC[C@@]2(C)C1CC[C@@]2(O)CNC(=O)/C=C/c1ccc(O)c(OC)c1` (some centres not stated) yielded a GI50 (786-0 renal) of 23.2 µM, a TGI (786-0 renal) of over 100 µM and a GI50 (A498 renal) of 23 µM. For the same compound, the TGI (A498 renal) was 54.5 µM, the GI50 (A549 NSCLC) was 22.3 µM and the TGI (A549 NSCLC) was over 100 µM. For the same compound, the GI50 (ACHN renal) was 17.5 µM, the TGI (ACHN renal) was 46.7 µM and the GI50 (BT-549 breast) was 16.2 µM. It also gave a TGI (BT-549 breast) of 75.7 µM, a GI50 (CAKI-1 renal) of 21.9 µM and a TGI (CAKI-1 renal) of over 100 µM. For the same compound, the GI50 (CCRF-CEM leukemia) was 0.932 µM, the TGI (CCRF-CEM leukemia) was over 100 µM and the GI50 (COLO 205 colon) was 14 µM. The TGI (COLO 205 colon) was 35.3 µM, the GI50 (DU-145 prostate) was 36.6 µM and the TGI (DU-145 prostate) was over 100 µM. It also gave a GI50 (EKVX NSCLC) of 10.7 µM, a TGI (EKVX NSCLC) of 83.7 µM and a GI50 (HCC-2998 colon) of 17.7 µM. The TGI (HCC-2998 colon) was 33.7 µM, the GI50 (HCT-116 colon) was 19 µM and the TGI (HCT-116 colon) was over 100 µM. For the same compound, the GI50 (HCT-15 colon) was 11.5 µM, the TGI (HCT-15 colon) was 33.1 µM and the GI50 (HL-60(TB) leukemia) was 8.46 µM. For the same compound, the TGI (HL-60(TB) leukemia) was over 100 µM, the GI50 (HOP-62 NSCLC) was 31.8 µM and the TGI (HOP-62 NSCLC) was over 100 µM. For the same compound, the GI50 (HOP-92 NSCLC) was 14.9 µM, the TGI (HOP-92 NSCLC) was 60 µM and the GI50 (HS 578T breast) was 75.3 µM. The TGI (HS 578T breast) was over 100 µM, the GI50 (HT29 colon) was 2.8 µM and the TGI (HT29 colon) was 10.8 µM. The GI50 (IGROV1 ovarian) was 4.66 µM, the TGI (IGROV1 ovarian) was over 100 µM and the GI50 (K-562 leukemia) was 12.3 µM. The TGI (K-562 leukemia) was over 100 µM, the GI50 (KM12 colon) was 4.77 µM and the TGI (KM12 colon) was over 100 µM. For the same compound, the GI50 (LOX IMVI melanoma) was 7.76 µM, the TGI (LOX IMVI melanoma) was 20.5 µM and the GI50 (M14 melanoma) was 15.8 µM. For the same compound, the TGI (M14 melanoma) was 53 µM, the GI50 (MALME-3M melanoma) was 21.3 µM and the TGI (MALME-3M melanoma) was over 100 µM. For the same compound, the GI50 (MCF7 breast) was 7.41 µM, the TGI (MCF7 breast) was over 100 µM and the GI50 (MDA-MB-435) was 4.95 µM. For the same compound, the TGI (MDA-MB-435) was over 100 µM, the GI50 (NCI-H226 lung) was 22.5 µM and the TGI (NCI-H226 lung) was 74.6 µM. The GI50 (NCI-H23 lung) was 25.5 µM, the TGI (NCI-H23 lung) was over 100 µM and the GI50 (NCI-H460 lung) was 4.02 µM. For the same compound, the TGI (NCI-H460 lung) was over 100 µM, the GI50 (NCI-H522 lung) was 19.9 µM and the TGI (NCI-H522 lung) was over 100 µM. It also gave a GI50 (NCI/ADR-RES ovarian) of 12.5 µM, a TGI (NCI/ADR-RES ovarian) of 83.4 µM and a GI50 (OVCAR-3 ovarian) of 37.5 µM. For the same compound, the TGI (OVCAR-3 ovarian) was over 100 µM, the GI50 (OVCAR-4 ovarian) was 14.9 µM and the TGI (OVCAR-4 ovarian) was over 100 µM. It also gave a GI50 (OVCAR-5 ovarian) of 45.5 µM, a TGI (OVCAR-5 ovarian) of over 100 µM and a GI50 (OVCAR-8 ovarian) of 38.4 µM. The TGI (OVCAR-8 ovarian) was over 100 µM, the GI50 (PC-3 prostate) was 12.1 µM and the TGI (PC-3 prostate) was 83.8 µM. It also gave a GI50 (RPMI-8226 leukemia) of 6.47 µM, a TGI (RPMI-8226 leukemia) of 53.9 µM and a GI50 (RXF 393 renal) of 21.1 µM. For the same compound, the TGI (RXF 393 renal) was 78.6 µM, the GI50 (SF-268 CNS) was 20 µM and the TGI (SF-268 CNS) was over 100 µM. The GI50 (SF-295 CNS) was 28.4 µM, the TGI (SF-295 CNS) was over 100 µM and the TGI (SF-539 CNS) was 19.3 µM. It also gave a GI50 (SK-MEL-2 melanoma) of 38.8 µM, a TGI (SK-MEL-2 melanoma) of over 100 µM and a GI50 (SK-MEL-28 melanoma) of 15.2 µM. It also gave a TGI (SK-MEL-28 melanoma) of 84.4 µM, a GI50 (SK-MEL-5 melanoma) of 18.2 µM and a TGI (SK-MEL-5 melanoma) of 46.6 µM. It also gave a GI50 (SK-OV-3 ovarian) of 66.1 µM, a TGI (SK-OV-3 ovarian) of over 100 µM and a GI50 (SN12C renal) of 24.3 µM. For the same compound, the TGI (SN12C renal) was over 100 µM, the GI50 (SNB-19 CNS) was 27.8 µM and the TGI (SNB-19 CNS) was over 100 µM. It also gave a GI50 (SNB-75 CNS) of 26.6 µM, a TGI (SNB-75 CNS) of over 100 µM and a GI50 (SW-620 colon) of 58.4 µM. For the same compound, the TGI (SW-620 colon) was over 100 µM, the GI50 (T-47D breast) was 9.12 µM and the TGI (T-47D breast) was over 100 µM. The GI50 (TK-10 renal) was 6.86 µM, the TGI (TK-10 renal) was over 100 µM and the GI50 (U251 CNS) was 19 µM. The TGI (U251 CNS) was 76.6 µM, the GI50 (UACC-257 melanoma) was 28 µM and the TGI (UACC-257 melanoma) was 80 µM. It also gave a GI50 (UACC-62 melanoma) of 12.1 µM, a TGI (UACC-62 melanoma) of 34.9 µM and a GI50 (UO-31 renal) of 10.3 µM. For the same compound, the TGI (UO-31 renal) was over 100 µM.
